{"source": "patent US20220175777A1", "about": "“Inhibitors of Multidrug Resistance Transporter P-Glycoprotein” (Southern Methodist University, priority 2014, published 2022)", "key": {"DU145TXR [1]": {"tested_on": "DU145TXR", "experiment": "Dose dependent sensitization of MDR cell line to paclitaxel (MTT)", "format": "cell-based, human", "settings": "25 μM compound", "description": "FIGS. 6A to 6C show the dose dependent sensitization of MDR prostate cancer cell line DU145TxR. […] For reference, the DU145TxR (closed circle) and DU145 (open circle) incubated with paclitaxel only are also included. Values are mean±SEM from at least 2 separate experiments performed in triplicate wells. The data were normalized to the intrinsic toxicities as determined in studies from FIGS. 5A to 5C of each of the compounds for each of the corresponding concentrations.\nDose Dependent Sensitization of MDR Prostate Cancer Cell Line: To determine the degree to which the MDR prostate cancer cell line DU145TxR could be sensitized to paclitaxel the inventors determined cell survival at increasing concentrations of paclitaxel in the presence of three concentrations of P-gp inhibitors. FIGS. 6A, 6B and 6C show the survival of DU145TxR at increasing concentration of paclitaxel in the presence of 5 μM, 10 μM and 25 μM of the experimental compounds, respectively. The open circles represent the parental DU145 cell line in the presence of paclitaxel without addition of any inhibitor compound. The closed circles represent the survival of the multidrug resistant DU145TxR in the presence of paclitaxel alone. […] At that concentration over 10-fold increase in paclitaxel sensitivity in DU145TxR is observed compared to DU145TxR without P-gp inhibitors. Doubling the concentration of the compounds to 10 μM approximately doubled the DU145TxR sensitivity to paclitaxel."}, "DU145": {"tested_on": "DU145", "experiment": "Intrinsic toxicity, MTT survival", "format": "cell-based", "settings": "Homo sapiens, DU-145, 48 hours, ± standard error", "description": "(§1) Percent survival determined by MTT assay calculated relative to cells treated with equal volume DMSO vehicle and represent the mean±SEM from 2-4 separate studies, each study performed in triplicate wells.\n(§2) The intrinsic in vitro toxicities of identified compounds were evaluated to determine their potential therapeutic window. This was assessed in a noncancerous cell line (HFL1) and the human prostate cancer cell lines DU145 and the MDR sub-line DU145TxR."}, "[2]": {"target": "Normal Human MDR1 P-glycoprotein (Homo sapiens, UniProt P08183)", "sequence (P08183 whole entry)": "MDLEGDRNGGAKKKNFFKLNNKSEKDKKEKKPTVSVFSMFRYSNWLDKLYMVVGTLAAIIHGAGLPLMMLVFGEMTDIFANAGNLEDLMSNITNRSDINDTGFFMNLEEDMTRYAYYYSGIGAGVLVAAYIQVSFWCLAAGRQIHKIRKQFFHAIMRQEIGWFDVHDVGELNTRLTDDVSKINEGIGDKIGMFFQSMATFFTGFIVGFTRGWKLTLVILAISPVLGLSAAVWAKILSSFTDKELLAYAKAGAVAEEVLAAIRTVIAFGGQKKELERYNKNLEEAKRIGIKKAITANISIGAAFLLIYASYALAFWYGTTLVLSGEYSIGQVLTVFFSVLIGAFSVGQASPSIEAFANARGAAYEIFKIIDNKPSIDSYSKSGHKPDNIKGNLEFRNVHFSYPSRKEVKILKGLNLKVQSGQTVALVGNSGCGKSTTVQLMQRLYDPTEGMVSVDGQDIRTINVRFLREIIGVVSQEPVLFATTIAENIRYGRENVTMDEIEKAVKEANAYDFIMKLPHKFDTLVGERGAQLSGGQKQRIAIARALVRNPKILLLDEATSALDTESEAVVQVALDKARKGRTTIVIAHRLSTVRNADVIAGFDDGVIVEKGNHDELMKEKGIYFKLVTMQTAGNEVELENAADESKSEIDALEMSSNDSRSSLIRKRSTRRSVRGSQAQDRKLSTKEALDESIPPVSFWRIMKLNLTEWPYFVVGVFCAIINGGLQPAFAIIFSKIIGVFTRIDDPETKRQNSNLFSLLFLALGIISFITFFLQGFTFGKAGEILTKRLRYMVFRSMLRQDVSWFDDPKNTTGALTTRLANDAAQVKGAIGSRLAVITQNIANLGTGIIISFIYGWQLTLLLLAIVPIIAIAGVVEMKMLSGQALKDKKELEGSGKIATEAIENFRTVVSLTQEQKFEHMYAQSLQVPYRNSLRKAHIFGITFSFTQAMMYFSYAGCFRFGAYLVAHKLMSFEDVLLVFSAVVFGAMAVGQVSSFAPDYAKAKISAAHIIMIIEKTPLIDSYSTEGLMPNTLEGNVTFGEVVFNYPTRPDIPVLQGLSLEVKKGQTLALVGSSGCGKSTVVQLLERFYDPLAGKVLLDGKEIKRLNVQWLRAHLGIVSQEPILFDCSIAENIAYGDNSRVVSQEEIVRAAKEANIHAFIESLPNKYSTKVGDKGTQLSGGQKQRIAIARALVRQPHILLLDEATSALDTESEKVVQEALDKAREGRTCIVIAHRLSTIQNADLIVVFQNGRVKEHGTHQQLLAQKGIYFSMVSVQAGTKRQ", "experiment": "ATP hydrolysis by human P-gp assembled into membrane nanodiscs", "format": "biochemical", "settings": "human MDR1 P-gp in nanodiscs", "text": "To assess whether the observed discrepancies of compounds stimulating basal P-gp ATPase activity but not being transport substrates of the human pump in the cell culture assessments were due to the fact that these biochemical assays used a cysteineless variant of the mouse MDR3 P-glycoprotein, the experiments were repeated using normal human MDR1 P-gp. In order to stabilize the human protein for the activity assays, the protein was assembled into membrane nanodiscs as described herein."}, "DU145TXR [3]": {"tested_on": "DU145TXR", "experiment": "Intrinsic toxicity, MTT survival", "format": "cell-based, human", "settings": "Homo sapiens; intrinsic toxicity, 48 hours, MTT; ± standard error", "description": "as §1, §2"}, "HFL1": {"tested_on": "HFL1", "experiment": "Intrinsic toxicity, MTT survival", "format": "cell-based", "settings": "Homo sapiens, 48 hours, ± standard error", "description": "as §1\nas §2, with “DU145TxR. The potential toxicity of the compounds were assessed at concentrations that centered around 25 μM.” for “DU145TxR.”"}, "[4]": {"target": "T1, Cysteineless Mouse MDR3 P-glycoprotein (Mus musculus, UniProt P21447, C1070A/C1121A/C1223A/C133A/C427A/C638A/C669A/C713A/C952A)", "T1 construct": "made in house; host or cells: Pichia pastoris", "T1 sequence (P21447 whole entry C133A/C427A/C638A/C669A/C713A/C952A/C1070A/C1121A/C1223A)": "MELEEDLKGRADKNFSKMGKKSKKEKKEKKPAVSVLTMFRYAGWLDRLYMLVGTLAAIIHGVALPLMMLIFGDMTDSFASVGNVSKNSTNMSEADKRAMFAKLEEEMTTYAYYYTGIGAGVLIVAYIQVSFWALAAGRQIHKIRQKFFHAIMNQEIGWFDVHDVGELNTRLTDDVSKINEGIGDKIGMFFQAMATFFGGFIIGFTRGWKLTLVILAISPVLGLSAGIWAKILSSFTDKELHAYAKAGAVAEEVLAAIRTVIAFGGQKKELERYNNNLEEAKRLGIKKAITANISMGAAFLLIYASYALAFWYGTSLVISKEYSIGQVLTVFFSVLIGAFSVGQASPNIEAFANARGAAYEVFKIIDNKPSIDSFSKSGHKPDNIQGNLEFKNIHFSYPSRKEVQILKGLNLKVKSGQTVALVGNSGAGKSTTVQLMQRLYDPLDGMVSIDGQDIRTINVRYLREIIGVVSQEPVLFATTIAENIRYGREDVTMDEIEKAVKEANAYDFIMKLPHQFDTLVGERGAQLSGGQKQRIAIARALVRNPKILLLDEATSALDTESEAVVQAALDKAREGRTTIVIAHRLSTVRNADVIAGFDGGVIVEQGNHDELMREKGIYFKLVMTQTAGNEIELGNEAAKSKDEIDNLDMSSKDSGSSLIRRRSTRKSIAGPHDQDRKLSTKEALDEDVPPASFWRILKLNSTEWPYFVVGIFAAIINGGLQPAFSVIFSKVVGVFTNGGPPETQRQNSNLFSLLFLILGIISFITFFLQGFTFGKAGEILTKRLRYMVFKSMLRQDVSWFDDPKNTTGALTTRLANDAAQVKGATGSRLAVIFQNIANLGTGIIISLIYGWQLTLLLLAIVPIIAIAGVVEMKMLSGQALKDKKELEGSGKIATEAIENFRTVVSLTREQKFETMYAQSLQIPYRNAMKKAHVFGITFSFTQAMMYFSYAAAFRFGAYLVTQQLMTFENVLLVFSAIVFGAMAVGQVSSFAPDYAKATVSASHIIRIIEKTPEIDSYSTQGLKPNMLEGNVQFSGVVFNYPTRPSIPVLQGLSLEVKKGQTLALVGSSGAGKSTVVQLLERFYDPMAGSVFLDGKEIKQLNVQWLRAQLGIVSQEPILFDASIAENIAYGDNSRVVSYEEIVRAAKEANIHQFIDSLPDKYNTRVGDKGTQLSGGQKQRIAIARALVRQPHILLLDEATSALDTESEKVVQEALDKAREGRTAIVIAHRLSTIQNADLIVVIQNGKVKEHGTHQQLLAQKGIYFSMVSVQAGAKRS", "settings": "cited from earlier work"}, "DU145TXR [5]": {"tested_on": "DU145TXR", "experiment": "Resensitization of DU145TXR to paclitaxel by 29 variants (MTT cell viability)", "format": "cell-based, human", "settings": "for Fold vs PTX ÷ 29: compared to parental compound 29", "text": "The Group 1 ChemGen/docking routine produced variants of P-gp inhibitor 29 resensitize a multidrug resistant, P-gp overexpressing prostate cancer cell line to paclitaxel. The mitochondrial reduction potential of cells is often used as an indicator for cell viability using MTT assays^40-42. Using these assays it was observed that the five Group 1 derivatives of 29 predicted through the ChemGen/docking routine and synthesized here, 216, 227, 231, 541 and 551, re-sensitized the P-gp overexpressing prostate cancer cell line, DU145TXR^33, to the chemotherapeutic, paclitaxel (FIG. 9, showing results of assays at concentrations of 3 μM, 5 μM, 7 μM, and 10 μM).\nCytotoxicity of the chemotherapeutic, paclitaxel (PTX) to P-gp overexpressing prostate cancer cells, DU145TXR, was determined in the absence and presence of the ChemGen designed 29-variants, 216, 227, 231, 541 and 551. For each experimental compound IC50 values of PTX alone or in the presence of inhibitors, fold improvement of PTX sensitivity in the presence of inhibitor, and fold improvement of PTX sensitivity by variants compared to parental compound 29 are given."}, "DU145-TxR": {"tested_on": "DU145-TxR", "experiment": "Re-sensitization to Paclitaxel or Doxorubicin at 25 μM compound (MTT)", "format": "cell-based, human", "settings": "48 hours", "description": "FIGS. 3A-3B are plots that show an example of the re-sensitization of a multidrug resistant prostate cancer cell line to two different chemotherapeutics using the prostate cancer derived cell line, DU145 and the multidrug-resistant variant, DU145-TxR. […] Cell viability was measured by the MTT (3-(4,5-dimethylthiazol-2-yl)-2,5-diphenyl tetrazolium bromide assay conducted as described previously. After 48 hours of treatment with Paclitaxel or Doxorubicin alone or in the presence of 25 μM compound 29, 34, or 45 media was removed and cells were washed twice with phosphate buffered saline (PBS) and MTT assay was conducted 24 hours later. Data expressed as mean±SEM."}, "DU145TXR [6]": {"tested_on": "DU145TXR", "experiment": "Potentiation of 500 nM paclitaxel cytotoxicity (MTT)", "format": "cell-based, human", "description": "FIGS. 4A and 4B show the in silico identified P-gp inhibitors potentiate the cytotoxic effects of paclitaxel in the MDR human prostate cancer cell line DU145TxR. […] Values represent the mean±SEM of at least two separate experiments performed in triplicate.\nA range of experimental inhibitor concentrations was added in the presence of 500 nM paclitaxel and the cell viability was assessed using the MTT assay.\nIn order to compare the efficacy of inhibitors, the potentiation concentration of inhibitor resulting in 50% reduction in cell viability, PC50, in the presence of 500 nM paclitaxel was calculated from the data in FIG. 4A."}}}
{"compound": "Cc1cc(C)c(-c2cc(NC(=O)CSc3n[nH]c(C4CC4)n3)n(-c3ccccc3)n2)cc1C", "note": "[SMU-29, 2-[(5-cyclopropyl-1H-1,2,4-triazol-3-yl)sulfanyl]-N-[2-phenyl-5-(2,4,5-trimethylphenyl)pyrazol-3-yl]acetamide]", "values": [{"measurement": "Sensitization to paclitaxel", "setting": "DU145TXR [1]", "result": 800, "unit": "fold"}, {"measurement": "IC50", "setting": "DU145", "result": "33.4 ± 0.01", "unit": "µM"}, {"measurement": "Basal ATPase (% of DMSO)", "setting": "[2]; basal", "result": "88 ± 9 % of DMSO"}, {"measurement": "Stimulated ATPase (% of DMSO)", "setting": "[2]; stimulated", "result": "62 ± 3 % of DMSO"}, {"measurement": "IC50", "setting": "DU145TXR [3]", "result": "37.9 ± 0.02", "unit": "µM"}, {"measurement": "IC50", "setting": "HFL1", "result": "48.2 ± 0.01", "unit": "µM"}, {"measurement": "Effect on SL-ANP binding", "setting": "[4]; ESR data of Brewer et al. (2014)", "result": "not interfere with ATP binding"}, {"measurement": "Maximum ATP binding mol SL-ANP bound/mol P-gp", "setting": "[4]; in presence of 29, taken from Brewer et al. (2014)", "result": "1.9 ± 0.1^1 mol SL-ANP bound/mol P-gp"}, {"measurement": "Fold vs PTX ÷ 29", "setting": "DU145TXR [5]; 3 μM inhibitor", "result": 1, "unit": "Fold"}, {"measurement": "Fold vs PTX", "setting": "DU145TXR [5]; 3 μM inhibitor, fold improvement of PTX sensitivity vs PTX alone", "result": 3, "unit": "Fold"}, {"measurement": "Fold vs PTX ÷ 29", "setting": "DU145TXR [5]; 5 μM inhibitor", "result": 1, "unit": "Fold"}, {"measurement": "Fold vs PTX", "setting": "DU145TXR [5]; 5 μM inhibitor, vs PTX alone", "result": 11, "unit": "Fold"}, {"measurement": "Fold vs PTX ÷ 29", "setting": "DU145TXR [5]; 7 μM inhibitor", "result": 1, "unit": "Fold"}, {"measurement": "Fold vs PTX", "setting": "DU145TXR [5]; 7 μM inhibitor, vs PTX alone", "result": 36, "unit": "Fold"}, {"measurement": "Fold vs PTX ÷ 29", "setting": "DU145TXR [5]; 10 μM inhibitor", "result": 1, "unit": "Fold"}, {"measurement": "Fold vs PTX", "setting": "DU145TXR [5]; 10 μM inhibitor, vs PTX alone", "result": 101, "unit": "Fold"}, {"measurement": "Chemotherapeutic sensitivity of MDR cell line (Paclitaxel or Doxorubicin)", "setting": "DU145-TxR", "result": "restores chemotherapeutic sensitivity"}, {"measurement": "Effect on paclitaxel sensitivity", "setting": "DU145TXR [6]; 50 nM-25 μM inhibitor with 500 nM paclitaxel", "result": "strongly affected the sensitivity"}, {"measurement": "EC50", "setting": "DU145TXR [6]; in the presence of 500 nM paclitaxel, 48 hours, read-out: PC50, potentiation concentration of inhibitor resulting in 50% reduction in cell viability", "result": "2.33 ± 0.01", "unit": "µM"}]}
